Values belong to the compound of their own block, whether it stands above or below them.
Columns and labels:
Format in all cases: binding
Conditions in all cases: read-out: Ka (M^-1) (converted)
[1] = molecular target: T1, C-phycocyanin (C-PC) (Limnospira platensis, UniProt P72508+P72509); test: fluorescence quenching titration (PCB emission, excitation […] nm); also UV-VIS, near-UV CD, thermal shift of nearly […] °C; design: gene cpcB; native C-PC purified from Spirulina biomass, (αβ)3 trimer / (αβ)6 hexamer; with C-phycocyanin alpha subunit (cpcA)
Target sequence in this assay (P72508 whole entry): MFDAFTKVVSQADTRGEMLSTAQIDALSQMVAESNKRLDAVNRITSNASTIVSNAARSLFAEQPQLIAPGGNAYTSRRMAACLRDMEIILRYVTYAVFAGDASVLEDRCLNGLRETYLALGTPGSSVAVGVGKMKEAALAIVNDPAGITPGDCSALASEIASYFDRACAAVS
Target sequence in this assay (P72509 whole entry): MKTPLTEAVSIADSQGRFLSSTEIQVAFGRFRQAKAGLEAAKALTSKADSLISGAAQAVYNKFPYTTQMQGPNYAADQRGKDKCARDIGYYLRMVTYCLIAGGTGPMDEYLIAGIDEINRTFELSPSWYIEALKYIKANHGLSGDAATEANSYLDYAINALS

[2] = molecular target: T1, C-phycocyanin (C-PC); test: fluorescence quenching titration (PCB emission, excitation […] nm); also near-UV CD, thermal shift of nearly […] °C; design: gene cpcA; native C-PC purified from Spirulina biomass, (αβ)3 trimer / (αβ)6 hexamer; with C-phycocyanin beta subunit (cpcB)
Target sequence in this assay (P72509 whole entry): as above
Target sequence in this assay (P72508 whole entry): as the sequence (P72508 whole entry) above

[3] = molecular target: T1, C-phycocyanin (C-PC); test: fluorescence quenching titration (PCB emission, excitation […] nm); also UV-VIS and near-UV CD; no change in Tm; design: gene cpcB; native C-PC purified from Spirulina biomass, (αβ)3 trimer / (αβ)6 hexamer; with C-phycocyanin alpha subunit (cpcA)
Target sequence in this assay (P72508 whole entry): as above
Target sequence in this assay (P72509 whole entry): as the sequence (P72509 whole entry) above

Structure (SMILES): O=c1c(O)c(-c2ccc(O)c(O)c2)oc2cc(O)cc(O)c12 [quercetin]
Kd [1]: 2700 nM

Kd [2]: 2940 nM
Structure (SMILES): COC1=C(OC)C(=O)C(C/C=C(\C)CC/C=C(\C)CC/C=C(\C)CC/C=C(\C)CC/C=C(\C)CC/C=C(\C)CC/C=C(\C)CC/C=C(\C)CC/C=C(\C)CCC=C(C)C)=C(C)C1=O [coenzyme Q10]

Structure (SMILES): Oc1ccc(/C=C/c2cc(O)cc(O)c2)cc1 [resveratrol]
Kd [3]: 4550 nM

Source: publication PMC10779248, “Investigation of the Potential of Selected Food-Derived Antioxidants to Bind and Stabilise the Bioactive Blue Protein C-Phycocyanin from Cyanobacteria Spirulina” (International Journal of Molecular Sciences, 2023)
